Laboratory results from publication PMC8484140 (Targeted Oncology, 2021).
“Also recorded” adds a separate entry of the source. Like-named read-outs stand apart in the source and are kept apart here.

Assays:
[1] = system: HR+/HER2− advanced breast cancer; test: Efficacy by RECIST 1.1, Stage I/II patients; assay type: in vivo, human; details: for Clinical response: CR (number of patients) / Clinical response: PD (number of patients) / Clinical response: PR (number of patients) / Clinical response: SD (number of patients): with exemestane in Stage II
[2] = assay type: in vivo, human
[3] = Safety and DLT evaluation; assay type: in vivo, human
[4] = additional 21 patients, entinostat 5 mg/week + exemestane 25 mg/day
[5] = DLT observation stage, 5 mg group
[6] = Stage I, 3 mg/week monotherapy, n=4
[7] = Stage I, 5 mg/week monotherapy, n=12
[8] = Stage I, 7 mg/week monotherapy, n=3
[9] = most common grade 3/4 AEs, 19 dose-escalation patients, stage not stated

## Nc1ccccc1NC(=O)c1ccc(CNC(=O)OCc2cccnc2)cc1 [Entinostat]
[1]; 3 mg (n = 2)
  Clinical response: CR (number of patients): 0
  Clinical response: PD (number of patients): 1
  Clinical response: PR (number of patients): 0
  Clinical response: SD (number of patients): 1
[1]; 5 mg (n = 9)
  Clinical response: CR (number of patients): 0
  Clinical response: PD (number of patients): 6
  Clinical response: PR (number of patients): 2
  Clinical response: SD (number of patients): 1
[1]; 5 mg group, from first dose of entinostat, 95% CI: 78–201
  PFS: 85.5 days
[1]; 7 mg→5 mg (n = 3)
  Clinical response: CR (number of patients): 0
  Clinical response: PD (number of patients): 2
  Clinical response: PR (number of patients): 0
  Clinical response: SD (number of patients): 1
[1]; 14 evaluated patients, 2/14
  Overall response rate (ORR, CR+PR): 14.3%
[1]; 14 evaluated patients, all cohorts
  Patients achieving CR: none
[1]; 14 evaluated patients, all three treatment groups
  Patients with stable disease: Three
[1]; 14 evaluated patients, three groups
  Patients with PD: Nine
[1]; extended treatment stage, entinostat 3 or 5 mg/week + exemestane 25 mg/day
  Patients with stable disease (> 12 weeks): three
[2]; [4]
  Grade 3/4 anemia: 9.5%
  Grade 3/4 fatigue: 9.5%
  Grade 3/4 neutropenia: 38%
  Grade 3/4 thrombocytopenia: 9.5%
[2]; entinostat in combination with exemestane, as quoted in Discussion
  Occurrence rate of thrombocytopenia: 10%
[3]; 3, 5, 7 mg/week
  Tolerability: well tolerated at all doses
[3]; [5]
  Grade 3/4 AEs: 16.7%
  Suspicious DLT (G3 ventricular tachycardia): one
[3]; DLT observation stage, 7 mg group
  Grade 3/4 AEs: 33.3%
[3]; Stage I, 3 mg/week group
  CTCAE grade 3 AE: no CTCAE grade 3 AE occurred
[3]; [6]
  AKP elevation, entinostat-related AE of all grades: 0 No. (%)
  ALT elevation, entinostat-related AE of all grades: 0 No. (%)
  AST elevation, entinostat-related AE of all grades: 0 No. (%)
  Abdominal pain, entinostat-related AE of all grades: 0 No. (%)
  Anemia, entinostat-related AE of all grades: 2 (50) No. (%)
  Back pain, entinostat-related AE of all grades: 0 No. (%)
  Chest pain, entinostat-related AE of all grades: 0 No. (%)
  Creatine increase, entinostat-related AE of all grades: 0 No. (%)
  Creatinine phosphokinase increase, entinostat-related AE of all grades: 0 No. (%)
  Debilitation, entinostat-related AE of all grades: 0 No. (%)
  Diarrhea, entinostat-related AE of all grades: 0 No. (%)
  Fatigue, entinostat-related AE of all grades: 0 No. (%)
  Flatulence, entinostat-related AE of all grades: 0 No. (%)
  Headache, entinostat-related AE of all grades: 0 No. (%)
  Hypoalbuminemia, entinostat-related AE of all grades: 0 No. (%)
  Hypocalcemia, entinostat-related AE of all grades: 0 No. (%)
  Hypokalemia, entinostat-related AE of all grades: 0 No. (%)
  Hypoproteinemia, entinostat-related AE of all grades: 0 No. (%)
  LDH increase, entinostat-related AE of all grades: 0 No. (%)
  Leukopenia, entinostat-related AE of all grades: 3 (75) No. (%)
  Limb pain, entinostat-related AE of all grades: 0 No. (%)
  Nausea, entinostat-related AE of all grades: 0 No. (%)
  Neutropenia, entinostat-related AE of all grades: 3 (75) No. (%)
  Palpitation, entinostat-related AE of all grades: 0 No. (%)
  Serum Ca^2+ decrease, entinostat-related AE of all grades: 0 No. (%)
  Serum Na+ decrease, entinostat-related AE of all grades: 0 No. (%)
  Serum albumin decrease, entinostat-related AE of all grades: 0 No. (%)
  Serum phosphate decrease, entinostat-related AE of all grades: 0 No. (%)
  Serum urea increase, entinostat-related AE of all grades: 0 No. (%)
  Thrombocytopenia, entinostat-related AE of all grades: 0 No. (%)
  Γ-GT elevation, entinostat-related AE of all grades: 0 No. (%)
  α-HBDH elevation, entinostat-related AE of all grades: 0 No. (%)
[3]; Stage I, 5 mg/week group
  Cases of CTCAE grade 3 AE: four
[3]; [7]
  AKP elevation, entinostat-related AE of all grades: 2 (16.7) No. (%)
  ALT elevation, entinostat-related AE of all grades: 2 (16.7) No. (%)
  AST elevation, entinostat-related AE of all grades: 2 (16.7) No. (%)
  Abdominal pain, entinostat-related AE of all grades: 2 (16.7) No. (%)
  Anemia, entinostat-related AE of all grades: 0 No. (%)
  Back pain, entinostat-related AE of all grades: 3 (25) No. (%)
  Chest pain, entinostat-related AE of all grades: 2 (16.7) No. (%)
  Creatine increase, entinostat-related AE of all grades: 0 No. (%)
  Creatinine phosphokinase increase, entinostat-related AE of all grades: 0 No. (%)
  Debilitation, entinostat-related AE of all grades: 2 (16.7) No. (%)
  Diarrhea, entinostat-related AE of all grades: 0 No. (%)
  Fatigue, entinostat-related AE of all grades: 2 (16.7) No. (%)
  Flatulence, entinostat-related AE of all grades: 2 (16.7) No. (%)
  Headache, entinostat-related AE of all grades: 3 (25) No. (%)
  Hypoalbuminemia, entinostat-related AE of all grades: 0 No. (%)
  Hypocalcemia, entinostat-related AE of all grades: 0 No. (%)
  Hypokalemia, entinostat-related AE of all grades: 0 No. (%)
  Hypoproteinemia, entinostat-related AE of all grades: 0 No. (%)
  LDH increase, entinostat-related AE of all grades: 0 No. (%)
  Leukopenia, entinostat-related AE of all grades: 7 (58.3) No. (%)
  Limb pain, entinostat-related AE of all grades: 0 No. (%)
  Neutropenia, entinostat-related AE of all grades: 4(33.3) No. (%)
  Palpitation, entinostat-related AE of all grades: 2 (16.7) No. (%)
  Serum Ca^2+ decrease, entinostat-related AE of all grades: 0 No. (%)
  Serum Na+ decrease, entinostat-related AE of all grades: 0 No. (%)
  Serum albumin decrease, entinostat-related AE of all grades: 0 No. (%)
  Serum phosphate decrease, entinostat-related AE of all grades: 0 No. (%)
  Serum urea increase, entinostat-related AE of all grades: 0 No. (%)
  Thrombocytopenia, entinostat-related AE of all grades: 2 (16.7) No. (%)
  Γ-GT elevation, entinostat-related AE of all grades: 2 (16.7) No. (%)
  α-HBDH elevation, entinostat-related AE of all grades: 2 (16.7) No. (%)
[3]; [8]
  AKP elevation, entinostat-related AE of all grades: 0 No. (%)
  ALT elevation, entinostat-related AE of all grades: 0 No. (%)
  AST elevation, entinostat-related AE of all grades: 0 No. (%)
  Abdominal pain, entinostat-related AE of all grades: 0 No. (%)
  Anemia, entinostat-related AE of all grades: 0 No. (%)
  Back pain, entinostat-related AE of all grades: 0 No. (%)
  Chest pain, entinostat-related AE of all grades: 0 No. (%)
  Creatine increase, entinostat-related AE of all grades: 0 No. (%)
  Creatinine phosphokinase increase, entinostat-related AE of all grades: 0 No. (%)
  Debilitation, entinostat-related AE of all grades: 0 No. (%)
  Diarrhea, entinostat-related AE of all grades: 0 No. (%)
  Fatigue, entinostat-related AE of all grades: 0 No. (%)
  Flatulence, entinostat-related AE of all grades: 0 No. (%)
  Headache, entinostat-related AE of all grades: 0 No. (%)
  Hypoalbuminemia, entinostat-related AE of all grades: 0 No. (%)
  Hypocalcemia, entinostat-related AE of all grades: 0 No. (%)
  Hypokalemia, entinostat-related AE of all grades: 0 No. (%)
  Hypoproteinemia, entinostat-related AE of all grades: 0 No. (%)
  LDH increase, entinostat-related AE of all grades: 0 No. (%)
  Leukopenia, entinostat-related AE of all grades: 0 No. (%)
  Limb pain, entinostat-related AE of all grades: 0 No. (%)
  Nausea, entinostat-related AE of all grades: 0 No. (%)
  Neutropenia, entinostat-related AE of all grades: 2 (66.7) No. (%)
  Palpitation, entinostat-related AE of all grades: 0 No. (%)
  Serum Ca^2+ decrease, entinostat-related AE of all grades: 0 No. (%)
  Serum Na+ decrease, entinostat-related AE of all grades: 0 No. (%)
  Serum albumin decrease, entinostat-related AE of all grades: 0 No. (%)
  Serum phosphate decrease, entinostat-related AE of all grades: 0 No. (%)
  Serum urea increase, entinostat-related AE of all grades: 0 No. (%)
  Thrombocytopenia, entinostat-related AE of all grades: 0 No. (%)
  Γ-GT elevation, entinostat-related AE of all grades: 0 No. (%)
  α-HBDH elevation, entinostat-related AE of all grades: 0 No. (%)
[3]; Stage I, all 19 patients
  Patients with entinostat-related AEs: 100%
[3]; all dose groups (3, 5, 7 mg/week)
  Dose-limiting toxicity (DLT) in Stage I: no patients experienced a DLT; also recorded: no DLT events occurred
[3]; [9]
  Grade 3/4 neutropenia: 31.6%
  Grade 3/4 thrombocytopenia: 15.8%
[3]; throughout the trial, up to 7 mg/week
  Median tolerance limit (MLT): not achieved
